According to patent US20070105162A1, “Monovalent avidin and streptavidin compositions” (Massachusetts Institute of Technology, priority 2005, published 2007):

Legend:
biotinylated cells = experiment: Binding of N23A, S27D streptavidin to biotinylated cells; type: cell-based
[1] = literature value; read-out: Kd for biotin, reported; cited from earlier work
[2] = test system: biotinylated AP-CFP-TM on HeLa cells; experiment: Staining of biotinylated AP-CFP-TM on HeLa with Alexa Fluor 568-conjugated avidins; type: cell-based; details: avidin, Alexa Fluor 568 conjugate
Experimental: Enzymatic biotinylation and imaging of HeLa transfectants are performed as previously described (Howarth, M. et al., Proc. Natl. Acad. Sci. USA 102: 7583-7588, 2005), except instead of 10 μM biotin and 1 mM ATP, we add 10 μM biotin-AMP (synthesized according to Coleman and Huang; Coleman, T. M. and Huang, F. Chem. Biol. 9: 1227-1236, 2002) to give equivalent biotinylation but minimizing the risk of purinoreceptor activation by ATP (Rathbone, M. P. et al., Prog. Neurobiol. 59: 663-690, 1999). […] Biotinylation of neurons is performed at day in vitro (DIV) 8 in Hanks' Balanced Salt Solution (HBSS) (Invitrogen) with 0.2 μM biotin ligase and 10 μM biotin-AMP for 5 min at 37° C. […] Neurons are washed with NeuroBasal media (Invitrogen) supplemented with B-27 (Invitrogen), 50 U/mL penicillin, 50 μg/mL streptomycin, and 0.2 mM L-glutamine and chased in the same medium for 0 or 2 hr at 37° C. Cells are then fixed in −20° C. methanol. There was no signal from wild-type avidin labeling if neurons were instead transfected with Ala-neuroligin-1 containing a point mutation in AP, confirming the specificity of labeling. […]
Images of HeLa cells are collected on a Zeiss Axiovert 200M inverted epifluorescence microscope using a 40× oil-immersion lens and a MicroMAX CCD camera (Roper Scientific; Tucson, Ariz.). CFP (420DF20 excitation, 450DRLP dichroic, 475DF40 emission) and Alexa568 (560DF20 excitation, 585DRLP dichroic, 605DF30 emission) images are collected and analyzed using OpenLab software (Improvision; Lexington, Mass.). Fluorescence images are background-corrected. […] Images are scaled to 16 bits and analyzed in Northern Eclipse (Empix Imaging; Ontario, Canada) with user-written software. […] Results are then calculated in terms of clusters per micrometer of dendrite. For assessment of pre-synaptic terminals, clusters are determined as before and average grey levels of clusters are compared between transfected dendrites and untransfected dendrites within the same field of view. […] “n” represents the number of transfected neurons for which clusters were measured. […]

[3] = test system: biotinylated AP-neuroligin-1 on hippocampal neurons; experiment: AP-neuroligin-1 clustering in hippocampal neurons labeled with avidin; type: cell-based, rat; details: after a two hour incubation at 37° C.
Experimental: HeLa cells are grown in Dulbecco's Modified Eagle Medium (DMEM) with 10% Fetal Calf Serum, 50 U/mL penicillin and 50 μg/mL streptomycin. HeLa stably expressing AP-CFP-TM or Ala-CFP-TM have been previously described (Howarth, M. et al., Proc. Natl. Acad. Sci. USA 102: 7583-7588, 2005). Dissociated primary neuronal cultures are prepared from Embryonic Day 18 or 19 (E18/19) rats and transfected with Lipofectamine 2000 at DIV6 as in Levinson et al. (Levinson, J. N. et al. J. Biol. Chem. 280: 17312-17319, 2005). […]
Images of HeLa cells are collected on a Zeiss Axiovert 200M inverted epifluorescence microscope using a 40× oil-immersion lens and a MicroMAX CCD camera (Roper Scientific; Tucson, Ariz.). CFP (420DF20 excitation, 450DRLP dichroic, 475DF40 emission) and Alexa568 (560DF20 excitation, 585DRLP dichroic, 605DF30 emission) images are collected and analyzed using OpenLab software (Improvision; Lexington, Mass.). Fluorescence images are background-corrected. […] Images are scaled to 16 bits and analyzed in Northern Eclipse (Empix Imaging; Ontario, Canada) with user-written software. […] Results are then calculated in terms of clusters per micrometer of dendrite. For assessment of pre-synaptic terminals, clusters are determined as before and average grey levels of clusters are compared between transfected dendrites and untransfected dendrites within the same field of view. […]

| Substance | binding to biotinylated cells (biotinylated cells) | Kd [1] [µM] | Alexa staining of biotinylated AP-CFP-TM [2] | staining pattern of labeled AP-neuroligin-1 [3] |
| --- | --- | --- | --- | --- |
| N23A, S27D: Streptavidin double mutant, still a tetramer, one of the weakest reported affinities for biotin | still bound to biotinylated cells | 71 | – | – |
| wild-type avidin: Wild-type avidin tetramer of four wild-type monomers (SEQ ID NO:17) [reference compound] | – | – | detected equally well | distinct aggregates |
